Here are results for 27 compounds from patent publication US20250353863A1, “TRICYCLIC SPIROLACTAM COMPOUNDS WITH ANTIMYCOBACTERIAL ACTIVITY” (priority 2022, published 2025).

One may read the MIC as the lowest concentration that inhibits growth of the organism.

The assay has as its system Mtb H37Rv-WT. As to the kind of experiment: MIC by resazurin microtiter assay (REMA) against Mtb. Format: cell-based. To be noted: Mycobacterium tuberculosis, REMA. On the technique in general: Alamar Blue is a resazurin reagent that responds to reducing activity.
The mark [1] stands for this setting: 144 h, 37° C., 6 days, read-out: MIC (μM) H37Rv-WT.

In brackets after ≈: the same amount, converted by molar mass. Like-named read-outs stand apart in the source and are kept apart here. A value given as a limit tells only on which side of the number the result lay.

Consider `CC(C)[C@H]1CO[C@]23CCN(Cc4ccc(C(F)(F)F)cc4)C(=O)[C@H]2CCC(=O)N13` [(3S,7aS,11aR)-3-isopropyl-9-[[4-(trifluoromethyl)phenyl]methyl]-3,6,7,7a,10,11-hexahydro-2H-oxazolo[2,3-j][1,6]naphthyridine-5,8-dione], for which the MIC under setting [1] is > 10 µM.

Turning to `CC(C)[C@H]1CO[C@]23CCN(Cc4ccc(C(F)(F)F)cc4)C[C@H]2CCC(=O)N13` [(3S,7aR,11aR)-3-isopropyl-9-[[4-(trifluoromethyl)phenyl]methyl]-2,3,6,7,7a,8,10,11-octahydrooxazolo[2,3-j][1,6]naphthyridin-5-one], the MIC under setting [1] is < 1 µM.

On to `CC(C)[C@H]1CO[C@]23CCN(Cc4ccc(N5CCCCC5)cc4)C[C@H]2CCC(=O)N13` [(3S,7aR,11aR)-3-isopropyl-9-[[4-(1-piperidyl)phenyl]methyl]-2,3,6,7,7a,8,10,11-octahydrooxazolo[2,3-j][1,6]naphthyridin-5-one], for which the MIC under setting [1] is 1 to 10 µM (≈ 0.412 to 4.12 µg/mL).

For `CC(C)[C@H]1CO[C@]23CCN(CC4CCOCC4)C[C@H]2CCC(=O)N13` [(3S,7aR,11aR)-3-isopropyl-9-(tetrahydropyran-4-ylmethyl)-2,3,6,7,7a,8,10,11-octahydrooxazolo[2,3-j][1,6]naphthyridin-5-one], the MIC under setting [1] was > 10 µM.

For the compound `CC(C)[C@H]1CO[C@]23CCN(Cc4ccc(C(F)(F)F)cc4C(F)(F)F)C[C@H]2CCC(=O)N13` [Example 10, (3S,7aR,11aR)-9-[[2,4-bis(trifluoromethyl)phenyl]methyl]-3-isopropyl-2,3,6,7,7a,8,10,11-octahydrooxazolo[2,3-j][1,6]naphthyridin-5-one], the minimum inhibitory concentration (MIC) (read-out: MIC M. tuberculosis) was < 1 µM.

Turning to `O=C1CC[C@@H]2CN(Cc3ccccc3)CC[C@@]23N[C@H]2CCCC[C@@H]2N13` [(1S,6R,11S,16S)-4-benzyl-4,10,17-triazatetracyclo[8.7.0.01,6.011,16] heptadecan-9-one], the minimal inhibitory concentration (MIC) under setting [1] was > 10 µM.

Consider `CC(C)[C@H]1CO[C@]23CCN(Cc4nccn4C)C[C@H]2CCC(=O)N13` [(3S,7aR,11aR)-3-isopropyl-9-[(1-methylimidazol-2-yl)methyl]-2,3,6,7,7a,8,10,11-octahydrooxazolo[2,3-j][1,6]naphthyridin-5-one], for which the MIC under setting [1] fell in the range of 1 to 10 µM (≈ 0.332 to 3.32 µg/mL).

Consider `CC(C)[C@H]1CO[C@]23CCN(S(=O)(=O)CCc4ccc(C(F)(F)F)cc4)C[C@H]2CCC(=O)N13` [(3S,7aR,11aR)-3-isopropyl-9-[2-[4-(trifluoromethyl)phenyl]ethylsulfonyl]-2,3,6,7,7a,8,10,11-octahydrooxazolo[2,3-j][1,6]naphthyridin-5-one], for which the minimal inhibitory concentration (MIC) under setting [1] is < 1 µM.

On to `CC(C)[C@H]1CO[C@]23CCN(C(=O)OCCc4ccc(C(F)(F)F)cc4)C[C@H]2CCC(=O)N13`, for which the MIC under setting [1] was 1 to 10 µM (≈ 0.454 to 4.54 µg/mL).

Consider `CC(C)[C@H]1CO[C@]23CCCN(Cc4ccc(C(F)(F)F)cc4)C[C@H]2CCC(=O)N13` [(4S,9R)-4-isopropyl-11-[[4-(trifluoromethyl)phenyl]methyl]-2-oxa-5,11-diazatricyclo[7,5,0.01,5]tetradecan-6-one], for which the MIC under setting [1] is < 1 µM.

As for `Cc1ccc(CN2CC[C@]34OC[C@H](C(C)C)N3C(=O)CC[C@@H]4C2)cc1` [(3S,7aR,11aR)-3-isopropyl-9-(p-tolylmethyl)-2,3,6,7,7a,8,10,11-octahydrooxazolo[2,3-j][1,6]naphthyridin-5-one], the MIC under setting [1] was in the range of 1 to 10 µM (≈ 0.342 to 3.42 µg/mL).

With `CC(C)[C@H]1CO[C@]23CCN(Cc4ccc(Cl)c(Cl)c4)C[C@H]2CCC(=O)N13` [(3S,7aR,11aR)-9-[(3,4-dichlorophenyl)methyl]-3-isopropyl-2,3,6,7,7a,8,10,11-octahydrooxazolo[2,3-j][1,6]naphthyridin-5-one], the MIC under setting [1] was < 1 µM.

As to `CC(C)[C@H]1CO[C@]23CC[C@H](N(Cc4ccc(C(F)(F)F)cc4)Cc4ccc(C(F)(F)F)cc4)C[C@H]2CCC(=O)N13` [Example 70, (3S,7aR,9S,11aR)-9-[bis[[4-(trifluoromethyl)phenyl]methyl]ami-no]-3-isopropyl-3,6,7,7a,8,9,10,11-octahydro-2H-oxazolo[2,3-j]quinolin-5-one], under “144 h, read-out: MIC M. tuberculosis”, the MIC was < 1 µM.

Turning to `C=C[C@H]1CO[C@]23CCN(Cc4ccc(C(F)(F)F)cc4)C[C@H]2CCC(=O)N13`, the MIC under setting [1] is > 10 µM.

As to `CC(C)[C@H]1CO[C@]23CCN(Cc4ccc(Cl)cc4)C[C@H]2CCC(=O)N13` [(3S,7aR,11aR)-9-[(4-chlorophenyl)methyl]-3-isopropyl-2,3,6,7,7a,8,10,11-octahydrooxazolo[2,3-j][1,6]naphthyridin-5-one], the MIC under setting [1] was < 1 µM.

As to `CC(C)[C@H]1CO[C@]23CCN(S(=O)(=O)CCCc4ccc(C(F)(F)F)cc4)C[C@H]2CCC(=O)N13`, the MIC under setting [1] was < 1 µM.

For the compound `CC(C)[C@H]1CO[C@]23CCN(S(=O)(=O)Cc4ccc(C(F)(F)F)cc4)C[C@H]2CCC(=O)N13`, under setting [1], the MIC is < 1 µM.

With `CC[C@@H]1C[C@@H]2CN(Cc3ccc(C(F)(F)F)cc3)CC[C@@]23OC[C@H](C(C)C)N3C1=O` [(3S,6R,7aR,11aR)-6-ethyl-3-isopropyl-9-[[4-(trifluoromethyl)phenyl]methyl]-2,3,6,7,7a,8,10,11-octahydrooxazolo[2,3-j][1,6]naphthyridin-5-one], the MIC under setting [1] is < 1 µM.

In the case of `CC(C)[C@H]1CO[C@]23CCN(C(=O)OCCCc4ccc(C(F)(F)F)cc4)C[C@H]2CCC(=O)N13`, the MIC under setting [1] lay within 1 to 10 µM (≈ 0.469 to 4.69 µg/mL).

In the case of `CC(C)[C@H]1CO[C@]23CCN(Cc4ccccc4)C[C@H]2CC(=O)N13` [(1R,4S,8R)-10-benzyl-4-isopropyl-2-oxa-5,10-diazatricyclo[6.4.0.01,5]dodecan-6-one], the MIC under setting [1] lay within 1 to 10 µM (≈ 0.314 to 3.14 µg/mL).

For `CC(C)[C@H]1CO[C@]23CCN(Cc4cc(C(F)(F)F)nc5ccccc45)C[C@H]2CCC(=O)N13` [(3S,7aR,11aR)-3-isopropyl-9-[[2-(trifluoromethyl)-4-quinolyl]methyl]-2,3,6,7,7a,8,10,11-octahydrooxazolo[2,3-j][1,6]naphthyridin-5-one], under setting [1], the MIC was < 1 µM.

Turning to `CC(C)[C@H]1CO[C@]23CCN(CCc4ccc(C(F)(F)F)cc4)C[C@H]2CCC(=O)N13` [Example 38, (3S,7aR,11aR)-3-isopropyl-9-[2-[4-(trifluoromethyl)phenyl]ethyl]-2,3,67,7a,8,10,11-octahydrooxazolo[2,3-j][1,6]naphthyridin-5-one], the MIC (read-out: MIC M. tuberculosis) was < 1 µM.

Take `CC(C)[C@H]1CO[C@]23CCN(Cc4ccc(-c5ccccc5)cc4)C[C@H]2CCC(=O)N13` [(3S,7aR,11aR)-3-isopropyl-9-[(4-phenylphenyl)methyl]-2,3,6,7,7a,8,10,11-octahydrooxazolo[2,3-j][1,6]naphthyridin-5-one]: the MIC under setting [1] is < 1 µM.

Consider `CC(C)[C@H]1CO[C@]23CCN(CC4CCCO4)C[C@H]2CCC(=O)N13` (stereo partly drawn) [(3S,7aR,11aR)-3-isopropyl-9-(tetrahydrofuran-2-ylmethyl)-2,3,6,7,7a,8,10,11-octahydrooxazolo[2,3-j][1,6]naphthyridin-5-one], for which the MIC under setting [1] was > 10 µM.

With `CC(C)[C@H]1CO[C@]23CC[C@@H](N(Cc4ccc(C(F)(F)F)cc4)Cc4ccc(C(F)(F)F)cc4)C[C@H]2CCC(=O)N13`, the MIC under setting [1] is < 1 µM.

With `CC(C)[C@H]1CO[C@]23CCN(Cc4cc5ccccc5n4C)C[C@H]2CCC(=O)N13`, under setting [1], the minimal inhibitory concentration (MIC) was < 1 µM.

For `CC(C)C[C@@H]1C[C@@H]2CN(Cc3ccc(C(F)(F)F)cc3)CC[C@@]23OC[C@H](C(C)C)N3C1=O` [(3S,6R,7aR,11aR)-6-isobutyl-3-isopropyl-9-[[4-(trifluoromethyl)phenyl]methyl]-2,3,6,7,7a,8,10,11-octahydrooxazolo[2,3-j][1,6]naphthyridin-5-one], under setting [1], the MIC was > 10 µM.
